Source: publication PMC8389614, “A Comparison of Acute Pharmacological Effects of Methylone and MDMA Administration in Humans and Oral Fluid Concentrations as Biomarkers of Exposure” (Biology, 2021)

What was measured:
Format in all cases: in vivo, humans
[1] = test system: healthy poly-drug users; experiment: Subjective effects, ARCI 49-item short form; design: key to ARCI PCAG Dunnet’s Test: “a” (times 0–1 h); “b” (times 0–2 h); “c” (times 0–4 h); not significant (NS); settings: for ARCI A (increased energy) AUC0–4h / ARCI A (increased energy) Emax / ARCI BG (intellectual efficiency) AUC0–4h / ARCI BG (intellectual efficiency) Emax / ARCI MBG (euphoria) AUC0–4h / ARCI MBG (euphoria) Emax / ARCI PCAG (sedation) AUC0–4h / ARCI PCAG (sedation) Emax / ARCI A (increased energy) Tmax: oral, methylone 100–300 mg n=8, MDMA 75–100 mg n=6; for ARCI A (increased energy) AUC0–4h / ARCI A (increased energy) Emax / ARCI BG (intellectual efficiency) AUC0–4h / ARCI BG (intellectual efficiency) Emax / ARCI MBG (euphoria) AUC0–4h / ARCI MBG (euphoria) Emax / ARCI PCAG (sedation) AUC0–4h / ARCI PCAG (sedation) Emax: baseline-adjusted, mean ± SD; for ARCI A (increased energy) Tmax: median (min–max); for ARCI A Dunnet’s Test / ARCI BG Dunnet’s Test / ARCI MBG Dunnet’s Test / ARCI PCAG Dunnet’s Test: time points significantly different from baseline
Text: (§1) The study was designed as a non-controlled prospective observational study in a naturalistic setting with methylone and MDMA self-administration. The methodology, including procedures and evaluations, coincides with previous observational–naturalistic studies aimed at evaluating the acute effects of other NPS [38, 39, 40]. Six subjects (5 M, 1 F) self-administered MDMA and 8 subjects (5 M, 3 F) self-administered methylone. Each subject participated only in one session. Participants brought their own substance obtained from an unknown source, which was tested by Energy Control, a harm reduction organization that provides a drug checking service to drug users. Pills containing methylone and MDMA were analyzed by gas chromatography associated with mass spectrometry (GC/MS), a technique that traces the presence of the most frequent drugs of abuse, such as MDMA, cocaine, heroin, amphetamine and methamphetamine, LSD, and multiple NPS (methylone, mephedrone, and other synthetic cathinones, synthetic cannabinoids, tryptamines, among others).
(§2) In both sessions, participants selected the dose of methylone or MDMA according to their previous drug use experience. Doses of methylone could be selected from a range (75–300 mg) that was previously defined according to the consulted literature. The WHO Expert Committee on Drug Dependence (Thirty-Sixth Meeting, Geneva, Switzerland, 16–20 June 2014) established that 60 mg of methylone was the threshold dose and doses over 250 mg were often related to very strong activity. Some users have reported uses of 300 mg of methylone as a common dose [www.erowid.org] (accessed on 15 June 2021). The mean of the selected doses of MDMA was 87.50 mg (3 subjects ingested 75 mg (2 males and 1 female), 3 males 100 mg). In the other study session, methylone doses ranged from 100 to 300 mg, with a mean of 187.50 mg. Based on their dose selection, 1 male ingested 100 mg, 2 subjects 150 mg (1 male and 1 female), 4 subjects 200 mg (2 males and 2 females), and 1 male 300 mg.
(§3) The sessions were conducted in a naturalistic setting. Participants were allowed to talk, read, listen to music, or play games, except during the evaluation times. However, they were asked to refrain from talking about the effects of the substance. All the subjects were evaluated simultaneously at baseline, 1, 2, and 4 h after administration of methylone or MDMA, which occurred approximately at 16:00 h. At each time point, evaluations were followed in a specific order: physiological effects, oral fluid collection, and subjective effects scales and questionnaires.
(§4) Subjective effects were evaluated at baseline, 1, 2, and 4 h after self-administration using visual analogue scales (VAS), the Addiction Research Center Inventory (ARCI), and the Evaluation of Subjective Effects of Substances with Abuse Potential questionnaire (VESSPA-SSE).
The standardized ARCI 49-item short form is a true/false questionnaire used to evaluate the subjective effects of drugs of abuse. This inventory includes five subscales that assess pentobarbital–chlorpromazine–alcohol-like effects (PCAG, sedation), morphine–benzedrine-like effects (MBG, euphoria), lysergic acid diethylamide-like effects (LSD, dysphoria), benzedrine-like effects (BG, intellectual efficiency), and amphetamine-like effects (A, increased energy).
(§5) Vital signs (SBP, DBP, and HR) and subjective effects (VAS, ARCI, and VESSPA-SSE) were baseline-adjusted. Maximum effects and the time in which maximum effects appeared were determined, and the area under the curve (AUC0–4h) was calculated with the trapezoidal rule.
(§6) Thirdly, to find possible significant changes from baseline, a Dunnett multiple comparison test was conducted to compare each time point with baseline in both drug conditions (0–1 h, 0–2 h, 0–4 h).

[2] = test system: healthy poly-drug users; experiment: Subjective effects, VESSPA-SSE questionnaire; design: key to VESSPA PS Dunnet’s Test: “a” (times 0–1 h); “b” (times 0–2 h); “c” (times 0–4 h); not significant (NS); settings: for VESSPA ACT (activity and energy) AUC0–4h / VESSPA ACT (activity and energy) Emax / VESSPA ANX (psychosomatic anxiety) AUC0–4h / VESSPA ANX (psychosomatic anxiety) Emax / VESSPA PS (psychotic symptoms) AUC0–4h / VESSPA PS (psychotic symptoms) Emax / VESSPA S (sedation) AUC0–4h / VESSPA S (sedation) Emax / VESSPA SOC (pleasure and sociability) AUC0–4h / VESSPA SOC (pleasure and sociability) Emax: oral, methylone 100–300 mg n=8, MDMA 75–100 mg n=6, baseline-adjusted, mean ± SD; for VESSPA ACT Dunnet’s Test / VESSPA ANX Dunnet’s Test / VESSPA PS Dunnet’s Test / VESSPA S Dunnet’s Test / VESSPA SOC Dunnet’s Test: time points significantly different from baseline
Text: as §1, §2, §3, §4
The VESSPA-SSE is a questionnaire sensitive to subjective effects related to stimulants such as MDMA that includes six subscales: sedation (S), psychosomatic anxiety (ANX), changes in perception (CP), pleasure and sociability (SOC), activity and energy (ACT), and psychotic symptoms (PS).
as §5, §6

[3] = Oral fluid concentrations (Salivette, LC-MS/MS); settings: both sexes, human; for Cmax / AUC(0-t): methylone 100–300 mg n=8, MDMA 75–100 mg n=6, mean ± SD; for AUC(0-t): read-out: Oral fluid AUC0–4 h; for Tmax: methylone 100–300 mg n=8, MDMA 75–100 mg n=6, median (min–max)
Description: In both sessions, oral fluid samples were collected with Salivette to determine methylone and MDMA concentrations in oral fluid at baseline, 1 h, 2 h, and 4 h. All samples were centrifuged after collection and stored frozen at −20 °C until analysis. Methylone and MDMA oral fluid concentrations were quantified via liquid chromatography tandem–mass spectrometry (LC–MS/MS).
For oral fluid concentrations of MDMA and methylone, only a descriptive analysis was presented showing main pharmacokinetics data such as the maximum concentration (Cmax), the time required to reach maximum concentrations (Tmax), and AUC0–4h. These parameters were calculated using the Pharmacokinetic Functions for Microsoft Excel (Joel Usansky, Atul Desai, and Diane Tang-Liu, Department of Pharmacokinetics and Drug Metabolism, Allergan, Irvine, CA, USA).

CNC(C)Cc1ccc2c(c1)OCO2 (centres unmarked) [MDMA, 3,4-methylenedioxymethamphetamine]
ARCI A (increased energy) AUC0–4h [1]: 15.75 ± 2.79 | ARCI A (increased energy) Emax [1]: 5.83 ± 1.17 score | ARCI BG (intellectual efficiency) AUC0–4h [1]: 9.83 ± 6.38 | ARCI BG (intellectual efficiency) Emax [1]: 4.67 ± 2.25 score | ARCI MBG (euphoria) AUC0–4h [1]: 20.83 ±10.05 | ARCI MBG (euphoria) Emax [1]: 8.0 ± 3.35 score | ARCI PCAG (sedation) AUC0–4h [1]: −1.58 ± 8.39 | ARCI PCAG (sedation) Emax [1]: −0.83 ± 3.54 score | ARCI A (increased energy) Tmax [1]: 1.0 (1.0–2.0) h | ARCI A Dunnet’s Test [1]: a, b, c | ARCI BG Dunnet’s Test [1]: a, b | ARCI MBG Dunnet’s Test [1]: a, b | ARCI PCAG Dunnet’s Test [1]: NS | VESSPA ACT (activity and energy) AUC0–4h [2]: 32.58 ± 15.71 | VESSPA ACT (activity and energy) Emax [2]: 13.33 ± 4.84 score | VESSPA ANX (psychosomatic anxiety) AUC0–4h [2]: 16.50 ± 8.82 | VESSPA ANX (psychosomatic anxiety) Emax [2]: 6.67 ± 4.37 score | VESSPA PS (psychotic symptoms) AUC0–4h [2]: 2.25 ± 2.36 | VESSPA PS (psychotic symptoms) Emax [2]: 1.33 ± 1.21 score | VESSPA S (sedation) AUC0–4h [2]: 5.92 ± 6.09 | VESSPA S (sedation) Emax [2]: 2.83 ± 2.23 score | VESSPA SOC (pleasure and sociability) AUC0–4h [2]: 38.67 ± 17.84 | VESSPA SOC (pleasure and sociability) Emax [2]: 14.50 ± 5.96 score | VESSPA ACT Dunnet’s Test [2]: a, b | VESSPA ANX Dunnet’s Test [2]: a, b | VESSPA PS Dunnet’s Test [2]: NS | VESSPA S Dunnet’s Test [2]: a, c | VESSPA SOC Dunnet’s Test [2]: a, b | Cmax [3]: 2940 ± 2760 ng/mL | AUC(0-t) [3]: 6590 ± 5230 ng·h/mL | Tmax [3]: 2 h

CNC(C)C(=O)c1ccc2c(c1)OCO2 (centres unmarked) [Methylone, 3,4-methylenedioxymethcathinone]
ARCI A (increased energy) AUC0–4h [1]: 12.56 ± 7.77 | ARCI A (increased energy) Emax [1]: 5.38 ± 3.29 score | ARCI BG (intellectual efficiency) AUC0–4h [1]: 10.06 ± 7.83 | ARCI BG (intellectual efficiency) Emax [1]: 4.63 ± 3.34 score | ARCI MBG (euphoria) AUC0–4h [1]: 16.63 ± 13.21 | ARCI MBG (euphoria) Emax [1]: 7.5 ± 5.13 score | ARCI PCAG (sedation) AUC0–4h [1]: −2.75 ± 3.73 | ARCI PCAG (sedation) Emax [1]: −1.25 ± 1.58 score | ARCI A (increased energy) Tmax [1]: 1.5 (1.0–4.0) h | ARCI A Dunnet’s Test [1]: a, b | ARCI BG Dunnet’s Test [1]: a, b | ARCI MBG Dunnet’s Test [1]: a, b | ARCI PCAG Dunnet’s Test [1]: a | VESSPA ACT (activity and energy) AUC0–4h [2]: 24.44 ± 17.87 | VESSPA ACT (activity and energy) Emax [2]: 9.75 ± 6.25 score | VESSPA ANX (psychosomatic anxiety) AUC0–4h [2]: 17.94 ± 11.17 | VESSPA ANX (psychosomatic anxiety) Emax [2]: 7.50 ± 4.69 score | VESSPA PS (psychotic symptoms) AUC0–4h [2]: 5.63 ± 5.58 | VESSPA PS (psychotic symptoms) Emax [2]: 2.63 ± 2.20 score | VESSPA S (sedation) AUC0–4h [2]: 7.06 ± 6.45 | VESSPA S (sedation) Emax [2]: 3.38 ± 2.50 score | VESSPA SOC (pleasure and sociability) AUC0–4h [2]: 31.31 ± 25.40 | VESSPA SOC (pleasure and sociability) Emax [2]: 12.25 ± 8.31 score | VESSPA ACT Dunnet’s Test [2]: a, b | VESSPA ANX Dunnet’s Test [2]: b, c | VESSPA PS Dunnet’s Test [2]: b | VESSPA S Dunnet’s Test [2]: b, c | VESSPA SOC Dunnet’s Test [2]: a, b | Cmax [3]: 15500 ng/mL | AUC(0-t) [3]: 40600 ng·h/mL | Tmax [3]: 2 h
